Data published in ChEMBL document CHEMBL1201862, “PubChem BioAssay data set” (2004).
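Values below derive from 48-hour exposures of cells grown in 96-well plates, with endpoints linearly interpolated between the two concentrations bracketing the appropriate inhibition level. GI50: concentration for 50% inhibition of growth.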 The source made the active and inactive calls. Cut-off read from the data, not from the text of the source: active = GI50 up to about 1.1 µM and inactive = higher.

Assays:
Test in all cases: DTP human tumour cell line panel, 48 h
HT-29 = tested on: HT-29
EKVX = tested on: EKVX
MDA-N = tested on: MDA-N
SK-MEL-2 = tested on: SK-MEL-2
UACC-62 = tested on: UACC-62
SR = tested on: SR
Malme-3M = tested on: Malme-3M
RPMI-8226 = tested on: RPMI-8226
SNB-75 = tested on: SNB-75
NCI-H23 = tested on: NCI-H23
COLO 205 = tested on: COLO 205
K562 = tested on: K562
SF-539 = tested on: SF-539
CCRF-CEM = tested on: CCRF-CEM
M14 = tested on: M14
DU-145 = tested on: DU-145
HCT-15 = tested on: HCT-15
MDA-MB-435 = tested on: MDA-MB-435
HOP-92 = tested on: HOP-92
SF-295 = tested on: SF-295

| Structure (SMILES) | GI50 (HT-29) | GI50 (EKVX) | GI50 (MDA-N) | GI50 (SK-MEL-2) | GI50 (UACC-62) | GI50 (SR) | GI50 (Malme-3M) | GI50 (RPMI-8226) | GI50 (SNB-75) | GI50 (NCI-H23) | GI50 (COLO 205) | GI50 (K562) | GI50 (SF-539) | GI50 (CCRF-CEM) | GI50 (M14) | GI50 (DU-145) | GI50 (HCT-15) [µM] | GI50 (MDA-MB-435) | GI50 (HOP-92) | GI50 (SF-295) |
| --- | --- | --- | --- | --- | --- | --- | --- | --- | --- | --- | --- | --- | --- | --- | --- | --- | --- | --- | --- | --- |
| CSc1nc(=S)[nH]c2[nH]nc(C)c12 | > 100 µM (inactive) | > 100 µM (inactive) | > 100 µM (inactive) | > 100 µM (inactive) | > 100 µM (inactive) | 94.4 µM (inactive) | > 100 µM (inactive) | > 100 µM (inactive) | > 100 µM (inactive) | > 100 µM (inactive) | > 100 µM (inactive) | > 100 µM (inactive) | > 100 µM (inactive) | > 100 µM (inactive) | > 100 µM (inactive) | > 100 µM (inactive) | > 100 | > 100 µM (inactive) |  |  |
| CCOC(=O)N1CCN(c2c(C)nc(C)nc2O)CC1 | > 100 µM (inactive) | > 100 µM (inactive) | > 100 µM (inactive) |  | > 100 µM (inactive) | > 100 µM (inactive) | > 100 µM (inactive) | > 100 µM (inactive) |  | > 100 µM (inactive) | > 100 µM (inactive) | > 100 µM (inactive) | > 100 µM (inactive) | > 100 µM (inactive) | > 100 µM (inactive) | > 100 µM (inactive) | > 100 | > 100 µM (inactive) | > 100 µM (inactive) | > 100 µM (inactive) |
| CC[C@H](C)C1=C(OC(C)=O)[N@+]2([O-])Oc3ccc(-c4c(O)c(O)c(-c5ccc(OC(C)=O)cc5)c(OC(C)=O)c4OC(C)=O)cc3O[C@]2([C@@H](C)CC)C(=O)N1O | 17.6 µM (inactive) | 18.8 µM (inactive) | 23.2 µM (inactive) | > 50 µM (inactive) | 14.7 µM (inactive) | 13.6 µM (inactive) | 16.6 µM (inactive) | 7.85 µM (inactive) |  | 29.8 µM (inactive) | 19.8 µM (inactive) | 11.7 µM (inactive) | 14.2 µM (inactive) |  | 28.2 µM (inactive) | 44.5 µM (inactive) | 19.2 | 27.1 µM (inactive) | 3.84 µM (inactive) | 22.8 µM (inactive) |
| COc1cccc(/N=N/C(=N/NC(=O)c2ccc(C)cc2)c2ccc(N(CCC#N)CCC#N)cc2OC)c1 | 21.2 µM (inactive) | 22.9 µM (inactive) | > 100 µM (inactive) | > 100 µM (inactive) | > 100 µM (inactive) | > 100 µM (inactive) | > 100 µM (inactive) | > 100 µM (inactive) |  | > 100 µM (inactive) | > 100 µM (inactive) | > 100 µM (inactive) |  | > 100 µM (inactive) | > 100 µM (inactive) | > 100 µM (inactive) | > 100 | > 100 µM (inactive) | > 100 µM (inactive) | 59 µM (inactive) |
| Cc1ccsc1/C(S)=N\c1ccc(Cl)c(/C=N/OC(C)(C)C)c1 | 14.1 µM (inactive) | 24.6 µM (inactive) | 43.1 µM (inactive) | 41.8 µM (inactive) | 32.4 µM (inactive) | 19.9 µM (inactive) | 40.2 µM (inactive) | 26.4 µM (inactive) |  | 24.7 µM (inactive) | 16.3 µM (inactive) |  | 50.5 µM (inactive) | 24.2 µM (inactive) | 39 µM (inactive) | 25.5 µM (inactive) | 31.2 | 53.3 µM (inactive) | 18 µM (inactive) | 28.1 µM (inactive) |
| Oc1cccc(-c2nc3cc(F)ccc3s2)c1 | 16.6 µM (inactive) | 3.84 µM (inactive) | 19.4 µM (inactive) | 19.8 µM (inactive) | 14.5 µM (inactive) | 18 µM (inactive) | 16.2 µM (inactive) | 20.3 µM (inactive) | 11.1 µM (inactive) | 16.6 µM (inactive) | 15.1 µM (inactive) | 27.5 µM (inactive) | 19.4 µM (inactive) | 22.3 µM (inactive) | 18.1 µM (inactive) | 18.7 µM (inactive) | 11.2 | 23.9 µM (inactive) |  | 20.6 µM (inactive) |
